Measurements published in patent US12084407B2, “Cannabigerol derivatives and use thereof as cannabinoid receptor modulators” (CANOPY GROWTH CORPORATION, priority 2019, dated 2024).
Where two headings read alike, the source gives them in different places.

Experiments:
[1] = target: T1, human CB1 receptor (Homo sapiens, UniProt P21554); assay: CB1 radioligand competitive binding assay ([3H]CP 55,940 displacement)
T1 construct: host or cells: CHO-K1

[2] = target: T2, human CB2 receptor (Homo sapiens, UniProt P34972); assay: CB2 radioligand competitive binding assay ([3H]CP 55,940 displacement); details: for Selectivity CB2: fold difference in selectivity between CB1 and CB2 binding, in the column of the receptor with the higher binding affinity
T2 construct: host or cells: CHO-K1
Procedure: Compounds of the present disclosure were tested for CB1 receptor binding affinity and for CB2 receptor binding affinity. As used herein, “binding affinity” is represented by the IC50 value, which was experimentally determined as described herein. The lower the IC50 value the higher the binding affinity. A compound of the present disclosure may be said to have “binding selectivity” if it has a higher binding affinity for one receptor compared to the other.
The membranes were prepared from CHO-K1 (Chinese hamster ovary) cells stably transfected with the human CB2 receptor (Cat. #ES-111-C; Perkin Elmer, Boston, MA). The cells were grown adherently and maintained in Ham's F12 medium containing 10% fetal bovine serum (FBS), penicillin, streptomycin and geneticin (G418) at 37° C. in a humid atmosphere of 5% CO2 following the manufacturer's instructions.
For membrane preparation the cells were washed with PBS and scraped off the plates in cold homogenization buffer (25 mM HEPES (pH 7.4), 2 mM EDTA) containing protease inhibitor cocktail (Sigma Cat. #P8340). The cell suspension was homogenized with a Pro-PK-01200D Polytron Homogenizer (Pro Scientific) and then centrifuged for 30 min at 120,000×g. The supernatant was discarded and the pellet was re-suspended in the homogenization buffer and stored at −80° C. until the time of use.
In this experiment, 3H radiolabeled CP 55,940, i.e. [3H]CP 55,940 (Perkin Elmer, Boston, MA), was used as a radioligand for the CB2 receptor to determine the binding affinity of compounds for the CB2 receptor (Scheme 7; above).
The competition binding experiments (single dose and dose-response) were performed by incubating 0.6 nM of [3H]CP55,940 (specific activity 101 Ci/mmol, Perkin Elmer) and different concentrations of compounds disclosed herein with membranes prepared as above from CHO-K1 cells expressing human CB2 receptor (1 μg of protein/well), 50 mM Tris-HCl (pH 7.4), 5 mM MgCl2, 1 mM CaCl2, and 2 mg/mL BSA.
For the single dose experiments, the compound stocks (usually 10 mM in DMSO) were diluted to working stocks in the binding buffer to give the final compound concentrations of 10 μM and 1 μM. For the dose-response experiments the test compounds were sequentially diluted to provide the desired concentration range for the IC50 determination. In each case the compounds were pre-incubated with the membrane for 20 min, before adding the radioligand.
After incubation with the radioligand for 60 min at 37° C., the incubation was terminated by rapid filtration of assay mixture through MultiScreen®HTS^+ 96-well filter plates (Millipore, Cat. #MSFCNXB), pre-soaked for 60 min with 50 mM Tris-HCl (pH 7.4) containing 0.33% polyethylenimine (PEI). The nonspecific binding (NSB) was determined in the presence of 10 μM unlabelled CP55,940. After drying the filter plate at 50° C. for at least 60 min, the filter-bound radioactivity was determined by scintillation spectrometry using the 1450 MicroBeta Plate Counter (Perkin Elmer, Boston, MA). From the dose-response experiments, the IC50 values were determined (see Table 1, CB2 IC50).
Where the test compound had about the same affinity for both receptors, this is represented by a value of 1.00 in the column for both receptors.

[3] = 0.8 nM [3H]CP 55,940, membranes from CHO-K1 cells expressing human CB1 receptor, dose-response, read-out: CB1 IC50
[4] = 0.6 nM [3H]CP55,940, membranes from CHO-K1 cells expressing human CB2 receptor, dose-response, read-out: CB2 IC50

T1 sequence (P21554 whole entry): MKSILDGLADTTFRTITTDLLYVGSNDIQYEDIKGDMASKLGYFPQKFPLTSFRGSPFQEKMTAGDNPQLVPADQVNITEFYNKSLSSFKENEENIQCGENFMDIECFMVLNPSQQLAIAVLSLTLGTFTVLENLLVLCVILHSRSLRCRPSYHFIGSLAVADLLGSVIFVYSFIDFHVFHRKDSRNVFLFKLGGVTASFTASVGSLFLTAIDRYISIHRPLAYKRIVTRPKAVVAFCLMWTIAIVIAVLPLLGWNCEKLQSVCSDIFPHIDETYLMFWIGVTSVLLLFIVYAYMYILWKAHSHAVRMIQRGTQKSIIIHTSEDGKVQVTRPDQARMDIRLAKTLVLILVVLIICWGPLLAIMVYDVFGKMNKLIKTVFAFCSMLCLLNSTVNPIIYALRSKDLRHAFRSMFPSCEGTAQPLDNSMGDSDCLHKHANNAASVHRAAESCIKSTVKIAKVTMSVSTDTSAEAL
T2 sequence (P34972 whole entry): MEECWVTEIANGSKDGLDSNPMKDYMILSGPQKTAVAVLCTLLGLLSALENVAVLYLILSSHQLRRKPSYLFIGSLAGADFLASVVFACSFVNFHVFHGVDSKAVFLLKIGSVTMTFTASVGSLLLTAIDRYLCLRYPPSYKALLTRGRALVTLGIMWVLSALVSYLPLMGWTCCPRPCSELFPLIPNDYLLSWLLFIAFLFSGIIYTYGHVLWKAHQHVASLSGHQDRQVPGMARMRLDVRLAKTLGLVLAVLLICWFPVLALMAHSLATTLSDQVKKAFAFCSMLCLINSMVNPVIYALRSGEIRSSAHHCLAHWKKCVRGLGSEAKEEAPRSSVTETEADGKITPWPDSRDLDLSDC

With CCCCCc1cc(O)c(C/C=C(\C)CCC=C(C)C)c(O)c1S(=O)(=O)NC [Compound 20, 3-(3,7-dimethylocta-2,6-dien-1-yl)-2,4-dihydroxy-N-methyl-6-pentylbenzenesulfonamide] the IC50 [1] was over 1000 nM, the IC50 [2] was 100 to 490 nM and the “Selectivity CB2” value [2] was 3.93 fold.

C=CCNS(=O)(=O)c1c(CCCCC)cc(O)c(C/C=C(\C)CCC=C(C)C)c1O [Compound 65, N-allyl-3-(3,7-dimethylocta-2,6-dien-1-yl)-2,4-dihydroxy-6-pentylbenzenesulfonamide] was tested, and the IC50 [1, 3] was over 1000 nM, the IC50 [2, 4] was under 100 nM and the “Selectivity CB2” value [2] was 25.50 fold.

In the case of CCCCCc1cc(O)c(C/C=C(\C)CCC=C(C)C)c(O)c1S(=O)(=O)Nc1ccccc1 [Compound 24, 3-(3,7-dimethylocta-2,6-dien-1-yl)-2,4-dihydroxy-6-pentyl-N-phenylbenzenesulfonamide], the IC50 [1, 3] is reported as 100 to 490 nM, the IC50 [2, 4] is reported as under 100 nM and the “Selectivity CB2” value [2] is reported as 61.50 fold.

For CCCCCc1cc(O)c(C/C=C(\C)CCC=C(C)C)c(O)c1S(=O)(=O)NC(C)C [Compound 23, 3-(3,7-dimethylocta-2,6-dien-1-yl)-2,4-dihydroxy-N-isopropyl-6-pentylbenzenesulfonamide], the IC50 [1, 3] was over 1000 nM, the IC50 [2, 4] was 100 to 490 nM and the “Selectivity CB2” value [2] was 18.43 fold.

In the case of CCCCCc1cc(O)c(C/C=C(\C)CCC=C(C)C)c(O)c1C(=O)NS(=O)(=O)c1cccnc1 [Compound 66, 3-(3,7-dimethylocta-2,6-dien-1-yl)-2,4-dihydroxy-6-pentyl-N-(pyridin-3-ylsulfonyl)benzamide], the IC50 [1, 3] is reported as over 1000 nM, the IC50 [2, 4] is reported as over 1000 nM and the “Selectivity CB2” value [2] is reported as 1.88 fold.

In the case of CCCCCc1cc(O)c(C/C=C(\C)CCC=C(C)C)c(O)c1S(=O)(=O)NC1CCC1 [Compound 63, N-cyclobutyl-3-(3,7-dimethylocta-2,6-dien-1-yl)-2,4-dihydroxy-6-pentylbenzenesulfonamide], the IC50 [1, 3] is reported as over 1000 nM, the IC50 [2, 4] is reported as under 100 nM and the “Selectivity CB2” value [2] is reported as 24.80 fold.

For CCCCCc1cc(O)c(C/C=C(\C)CCC=C(C)C)c(O)c1S(=O)(=O)NC1CCCCC1 [Compound 62, N-cyclohexyl-3-(3,7-dimethylocta-2,6-dien-1-yl)-2,4-dihydroxy-6-pentylbenzenesulfonamide], the IC50 [1, 3] was over 1000 nM, the IC50 [2, 4] was 100 to 490 nM and the “Selectivity CB2” value [2] was 9.04 fold.

For CCCCCc1cc(O)c(C/C=C(\C)CCC=C(C)C)c(O)c1S(=O)(=O)Oc1ccccc1 [Compound 67, phenyl-3-(3,7-dimethylocta-2,6-dien-1-yl)-2,4-dihydroxy-6-pentylbenzenesulfonate], the IC50 [1, 3] was over 1000 nM, the IC50 [2, 4] was 100 to 490 nM and the “Selectivity CB2” value [2] was 20.83 fold.

With CCCCCc1cc(O)c(C/C=C(\C)CCC=C(C)C)c(O)c1S(C)(=O)=O [Compound 3, 2-(3,7-dimethylocta-2,6-dien-1-yl)-4-(methylsulfonyl)-5-pentylbenzene-1,3-diol] the IC50 [1, 3] was over 1000 nM, the IC50 [2, 4] was 500 to 990 nM and the “Selectivity CB2” value [2] was 1.47 fold.

With CCCCCc1cc(O)c(C/C=C(\C)CCC=C(C)C)c(O)c1C(=O)NS(=O)(=O)c1ccccc1 [Compound 58, 3-(3,7-dimethylocta-2,6-dien-1-yl)-2,4-dihydroxy-6-pentyl-N-(phenylsulfonyl)benzamide] the IC50 [1, 3] was over 1000 nM, the IC50 [2, 4] was over 1000 nM and the “Selectivity CB2” value [2] was 1.88 fold.

For CCCCCc1cc(O)c(C/C=C(\C)CCC=C(C)C)c(O)c1S(=O)(=O)N1CCOCC1 [Compound 28, 2-(3,7-dimethylocta-2,6-dien-1-yl)-4-(morpholinosulfonyl)-5-pentylbenzene-1,3-diol], the IC50 [1, 3] was 500 to 990 nM, the IC50 [2, 4] was under 100 nM and the “Selectivity CB2” value [2] was 266.67 fold.

CCCCCCNS(=O)(=O)c1c(CCCCC)cc(O)c(C/C=C(\C)CCC=C(C)C)c1O [Compound 64, 3-(3,7-dimethylocta-2,6-dien-1-yl)-N-hexyl-2,4-dihydroxy-6-pentylbenzenesulfonamide] was tested, and the IC50 [1, 3] was over 1000 nM, the IC50 [2, 4] was 100 to 490 nM and the “Selectivity CB2” value [2] was 7.89 fold.
